# According to patent publication US20240067632A1, “WEE1 Degrading Compounds and Uses Thereof” (Bristol-Myers Squibb Company, priority 2022, published 2024):
# Legend:
# WEE1 = molecular target: T1, WEE1 (Homo sapiens, UniProt P30291+Q96SW2); assay: WEE1-ePL degradation assay (LentiX-WEE1-ePL-GSPT1-ND cells, InCELL Hunter luminescence, 4 h); format: cell-based; details: 293T-LentiX WEE1-ePL cells; for 293T-LentiX WEE1-ePL Degradation 4 hr (Ymin): lower limit of the fit (0 = luciferase inhibitor, Ymax = DMSO control); for DC50: read-out: 293T-LentiX WEE1-ePL Degradation 4 hr (EC50)
# T1 construct: C-terminal ePL-tagged (DiscoverX, Fremont, CA) full-length WEE1 expression construct; expressed in transfected cells; host or cells: LentiX-HEK293T (Invitrogen), lentiviral transduction; co-expressing GSPT1-GN (G576N, lacking the first 158 amino acids)
# Summary of the method: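 HEK293T cells stably expressing C-terminal ePL-tagged full-length WEE1, 2500 cells/well, treated 4 h at 37° C with a 10-point 3-fold series from 1 or 10 uM. Remaining WEE1-ePL read by InCELL Hunter luminescence after 30 min. EC50 came from a four-parameter logistic fit, with Ymax set from DMSO control.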
# MKN45 cells = assay: MKN45 cell proliferation assay (Cell-Titer-Glo, 120 h); format: cell-based; details: for EC50: Homo sapiens, MKN-45, 120 h, Cell-Titer-Glo, growth inhibition, read-out: MKN45 Cell Prolif. 120 hr (EC50); for MKN45 Cell Prolif. 120 hr (Ymin-Obs): minimal percent of DMSO control observed in the concentrations tested
# Summary of the method: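 Cells seeded at 400/well onto pre-printed 10-point half-log dilutions (top 1 or 10 uM, 0.1% DMSO final), in triplicate, and grown 120 h at 37 C. Viability by Cell-Titer-Glo luminescence, blank-subtracted and normalised to DMSO; EC50 from four-parameter logistic fit, with observed minimal % of control recorded as Ymin-obs.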
Structure (SMILES),293T-LentiX WEE1-ePL Degradation 4 hr (Ymin) (WEE1),DC50 (WEE1),EC50 (MKN45 cells),MKN45 Cell Prolif. 120 hr (Ymin-Obs) (MKN45 cells)
"CO[C@H]1CCN(c2ccc3cc(CN4CC[C@H](Oc5ccc6c(c5)CN(C5CCC(=O)NC5=O)C6=O)C4)ccc3n2)C1 (stereo partly drawn) [3-(5-{[(3S)-1-({2-[(3S)-3-methoxypyrrolidin-1-yl]quinolin-6-yl}methyl)pyrrolidin-3-yl]oxy}-1-oxo-2,3-dihydro-1H-isoindol-2-yl)piperidine-2,6-dione]",34,3.58 nM,1.58 nM,9.12
"O=C1CCC(N2Cc3cc(O[C@H]4CCN(Cc5ccc6nc([C@@H]7CCCOC7)ncc6c5)C4)ccc3C2=O)C(=O)N1 (stereo partly drawn) [3-(5-{[(3S)-1-({2-[(3S)-oxan-3-yl]quinazolin-6-yl}methyl)pyrrolidin-3-yl]oxy}-1-oxo-2,3-dihydro-1H-isoindol-2-yl)piperidine-2,6-dione]",31,33.8 nM,19.4 nM,5.31
"O=C1CCC(N2Cc3cc(O[C@H]4CCN(Cc5ccc6nc([C@@H]7CCCOC7)ccc6c5)C4)ccc3C2=O)C(=O)N1 (stereo partly drawn) [3-(5-{[(3S)-1-({2-[(3S)-oxan-3-yl]quinolin-6-yl}methyl)pyrrolidin-3-yl]oxy}-1-oxo-2,3-dihydro-1H-isoindol-2-yl)piperidine-2,6-dione]",32,2.15 nM,3.59 nM,10.6
"O=C1CCC(N2Cc3cc(O[C@H]4CCN(Cc5ccc6nc(N7C[C@H]8CCO[C@H]8C7)ncc6c5)C4)ccc3C2=O)C(=O)N1 (stereo partly drawn) [3-(5-{[(3S)-1-({2-[(3aR,6aR)-hexahydro-2H-furo[2,3-c]pyrrol-5-yl]quinazolin-6-yl}methyl)pyrrolidin-3-yl]oxy}-1-oxo-2,3-dihydro-1H-isoindol-2-yl)piperidine-2,6-dione]",35,12.6 nM,13.4 nM,13.09
"O=C1CCC(N2Cc3cc(O[C@H]4CCN(Cc5ccc6nc(N7C[C@H]8CCO[C@H]8C7)ccc6c5)C4)ccc3C2=O)C(=O)N1 (stereo partly drawn) [3-(5-{[(3S)-1-({2-[(3aR,6aR)-hexahydro-2H-furo[2,3-c]pyrrol-5-yl]quinolin-6-yl}methyl)pyrrolidin-3-yl]oxy}-1-oxo-2,3-dihydro-1H-isoindol-2-yl)piperidine-2,6-dione]",37,3.2 nM,6.09 nM,14.13
"O=C1CCC(N2Cc3cc(O[C@H]4CCN(Cc5ccc6nc(N7C[C@H]8COC[C@H]8C7)ncc6c5)C4)ccc3C2=O)C(=O)N1 (stereo partly drawn) [3-(5-{[(3S)-1-({2-[(3aR,6aS)-hexahydro-1H-furo[3,4-c]pyrrol-5-yl]quinazolin-6-yl}methyl)pyrrolidin-3-yl]oxy}-1-oxo-2,3-dihydro-1H-isoindol-2-yl)piperidine-2,6-dione]",38,14 nM,13 nM,12.43
"O=C1CCC(N2Cc3cc(O[C@H]4CCN(Cc5ccc6nc(N7C[C@H]8COC[C@H]8C7)ccc6c5)C4)ccc3C2=O)C(=O)N1 (stereo partly drawn) [3-(5-{[(3S)-1-({2-[(3aR,6aS)-hexahydro-1H-furo[3,4-c]pyrrol-5-yl]quinolin-6-yl}methyl)pyrrolidin-3-yl]oxy}-1-oxo-2,3-dihydro-1H-isoindol-2-yl)piperidine-2,6-dione]",39,3.61 nM,6.4 nM,14.73

# Second part, led by results:
293T-LentiX WEE1-ePL Degradation 4 hr (Ymin) (WEE1),DC50 (WEE1),EC50 (MKN45 cells),Structure (SMILES),MKN45 Cell Prolif. 120 hr (Ymin-Obs) (MKN45 cells)
27,65 nM,19.7 nM,"CC1(C)C[C@H](c2ncc3cc(CN4CC[C@H](Oc5ccc6c(c5)CN(C5CCC(=O)NC5=O)C6=O)C4)ccc3n2)CCO1 (stereo partly drawn) [3-(5-{[(3S)-1-({2-[(4R)-2,2-dimethyloxan-4-yl]quinazolin-6-yl}methyl)pyrrolidin-3-yl]oxy}-1-oxo-2,3-dihydro-1H-isoindol-2-yl)piperidine-2,6-dione]",9.866
41,3.31 nM,8.03 nM,"CC1(C)COCC[C@H]1c1ccc2cc(CN3CC[C@H](Oc4ccc5c(c4)CN(C4CCC(=O)NC4=O)C5=O)C3)ccc2n1 (stereo partly drawn) [3-(5-{[(3S)-1-({2-[(4R)-3,3-dimethyloxan-4-yl]quinolin-6-yl}methyl)pyrrolidin-3-yl]oxy}-1-oxo-2,3-dihydro-1H-isoindol-2-yl)piperidine-2,6-dione]",11.03
35.43,19.5 nM,16.7 nM,"O=C1CCC(N2Cc3cc(O[C@H]4CCN(Cc5ccc6nc(N7CC[C@]78CCOC8)ncc6c5)C4)ccc3C2=O)C(=O)N1 (stereo partly drawn) [3-(5-{[(3S)-1-({2-[(4R)-6-oxa-1-azaspiro[3.4]octan-1-yl]quinazolin-6-yl}methyl)pyrrolidin-3-yl]oxy}-1-oxo-2,3-dihydro-1H-isoindol-2-yl)piperidine-2,6-dione]",13.42
42,5.38 nM,5.4 nM,"O=C1CCC(N2Cc3cc(O[C@H]4CCN(Cc5ccc6nc(N7CC[C@]78CCOC8)ccc6c5)C4)ccc3C2=O)C(=O)N1 (stereo partly drawn) [3-(5-{[(3S)-1-({2-[(4R)-6-oxa-1-azaspiro[3.4]octan-1-yl]quinolin-6-yl}methyl)pyrrolidin-3-yl]oxy}-1-oxo-2,3-dihydro-1H-isoindol-2-yl)piperidine-2,6-dione]",7.715
31,43.4 nM,9.52 nM,"CC1(C)C[C@@H](c2ncc3cc(CN4CC[C@H](Oc5ccc6c(c5)CN(C5CCC(=O)NC5=O)C6=O)C4)ccc3n2)CCO1 (stereo partly drawn) [3-(5-{[(3S)-1-({2-[(4S)-2,2-dimethyloxan-4-yl]quinazolin-6-yl}methyl)pyrrolidin-3-yl]oxy}-1-oxo-2,3-dihydro-1H-isoindol-2-yl)piperidine-2,6-dione]",8.354
34,1.78 nM,1.7 nM,"CC1(C)COCC[C@@H]1c1ccc2cc(CN3CC[C@H](Oc4ccc5c(c4)CN(C4CCC(=O)NC4=O)C5=O)C3)ccc2n1 (stereo partly drawn) [3-(5-{[(3S)-1-({2-[(4S)-3,3-dimethyloxan-4-yl]quinolin-6-yl}methyl)pyrrolidin-3-yl]oxy}-1-oxo-2,3-dihydro-1H-isoindol-2-yl)piperidine-2,6-dione]",6.945
34.39,14.6 nM,13.3 nM,"O=C1CCC(N2Cc3cc(O[C@H]4CCN(Cc5ccc6nc(N7CC[C@@]78CCOC8)ncc6c5)C4)ccc3C2=O)C(=O)N1 (stereo partly drawn) [3-(5-{[(3S)-1-({2-[(4S)-6-oxa-1-azaspiro[3.4]octan-1-yl]quinazolin-6-yl}methyl)pyrrolidin-3-yl]oxy}-1-oxo-2,3-dihydro-1H-isoindol-2-yl)piperidine-2,6-dione]",12.16
40,6.07 nM,6.53 nM,"O=C1CCC(N2Cc3cc(O[C@H]4CCN(Cc5ccc6nc(N7CC[C@@]78CCOC8)ccc6c5)C4)ccc3C2=O)C(=O)N1 (stereo partly drawn) [3-(5-{[(3S)-1-({2-[(4S)-6-oxa-1-azaspiro[3.4]octan-1-yl]quinolin-6-yl}methyl)pyrrolidin-3-yl]oxy}-1-oxo-2,3-dihydro-1H-isoindol-2-yl)piperidine-2,6-dione]",7.225
32.5,12.3 nM,6.61 nM,"O=C1CCC(N2Cc3cc(O[C@H]4CCN(Cc5ccc6nc(N7CCC[C@]78CCOC8)ncc6c5)C4)ccc3C2=O)C(=O)N1 (stereo partly drawn) [3-(5-{[(3S)-1-({2-[(5R)-7-oxa-1-azaspiro[4.4]nonan-1-yl]quinazolin-6-yl}methyl)pyrrolidin-3-yl]oxy}-1-oxo-2,3-dihydro-1H-isoindol-2-yl)piperidine-2,6-dione]",6.57
46,6.81 nM,10.9 nM,"O=C1CCC(N2Cc3cc(O[C@H]4CCN(Cc5ccc6nc(N7CCC[C@]78CCOC8)ccc6c5)C4)ccc3C2=O)C(=O)N1 (stereo partly drawn) [3-(5-{[(3S)-1-({2-[(5R)-7-oxa-1-azaspiro[4.4]nonan-1-yl]quinolin-6-yl}methyl)pyrrolidin-3-yl]oxy}-1-oxo-2,3-dihydro-1H-isoindol-2-yl)piperidine-2,6-dione]",17.85
34.08,12.6 nM,9.38 nM,"O=C1CCC(N2Cc3cc(O[C@H]4CCN(Cc5ccc6nc(N7CCC[C@@]78CCOC8)ncc6c5)C4)ccc3C2=O)C(=O)N1 (stereo partly drawn) [3-(5-{[(3S)-1-({2-[(5S)-7-oxa-1-azaspiro[4.4]nonan-1-yl]quinazolin-6-yl}methyl)pyrrolidin-3-yl]oxy}-1-oxo-2,3-dihydro-1H-isoindol-2-yl)piperidine-2,6-dione]",9.64
